Measurements as given in the METLIN SMRT retention time set (Domingo-Almenara et al. 2019).

Assay: gradient 5% acetonitrile 3 min, to 50% in 2 min, to 85% in 15 min, held 3 min, 100 µL/min
Settings: column: Zorbax Extend-C18 2.1 x 50 mm; eluents: water / acetonitrile, 0.1% formic acid
How it was run: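 Each retention time is based on an adduct peak selected computationally and verified by manual inspection. Measurements used HPLC–quadrupole time-of-flight mass spectrometry in positive and negative ionization mode on mixtures of ~100 pure standards. Chromatography ran on a Zorbax Extend-C18 column (2.1 × 50 mm, 1.8 μm) at 100 μL/min with water and acetonitrile, each containing 0.1% formic acid, and dead and dwell volumes of 40 μL and 900 μL.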

Row | Structure (SMILES) | RP-LC retention time [s]
1 | O=C(C1CCC1)N1CCC(Cc2nc(C3CC3)n[nH]2)CC1 | 598
2 | CCCn1cc(S(=O)(=O)Nc2cc(F)ccc2Cl)c2cccnc21 | 950
3 | COC(=O)c1ccccc1C(=O)N(Cc1cccnc1)c1nc2ccc(F)cc2s1 | 722
4 | CCCOc1nc2ccccc2nc1N1CCCC(C(=O)Nc2ccccc2OC)C1 (stereo not drawn) | 1320
5 | Nc1cc(C2CCN(C(=O)c3ccccc3F)CC2)no1 | 648
6 | COc1ccc(C(C)NC(=O)COc2ccc(NC(=O)C3CC3)cn2)cc1OC (stereo not drawn) | 689
7 | c1cn2cnnc2cc1-c1noc(-c2ccc3c(c2)OCO3)n1 | 792
8 | CSc1ccc(CNC(=O)C2CCCN(c3nc4c(s3)c(C)nn4-c3ccccc3)C2)cc1 (stereo not drawn) | 1150
9 | O=C(CCCc1nnc(C(=O)Nc2ccccc2)s1)NCCc1c[nH]c2ccc(Cl)cc12 | 889
10 | CCOc1nc2ccccc2nc1N1CCCC(C(=O)Nc2cc(C)cc(C)c2)C1 (stereo not drawn) | 1320
11 | CCCN1CCN(C(=O)c2nc(N3CCSCC3)c3cnn(C)c3n2)CC1 | 576
12 | CS(=O)(=O)N1CCC(CC(=O)NCCC2=CCCCC2)C1 (stereo not drawn) | 743
13 | CCCN1C(=O)COc2cc(-c3noc(C(=O)NC4CCCC4)n3)ccc21 | 977
14 | CCn1cc(S(=O)(=O)Nc2cc(C)ccc2C)c2cccnc21 | 892
15 | CCc1ccc(Nc2c(C(=O)N3CCCCC3C)cnc3nc(C)ccc23)cc1 (stereo not drawn) | 674
16 | O=C(c1ccc2c(c1)OCO2)N1CCC(c2ccncc2)CC1 | 584
17 | COc1ccccc1NC(=O)N1CCC(CNC(=O)c2cc(Cl)ccc2Cl)CC1 | 811
18 | CCc1nc(OCC(=O)NCc2cc(OC)ccc2OC)c2c(C)c(C)oc2n1 | 971
19 | CC1CCN(CC2CCN(S(=O)(=O)c3cccc(Cl)c3)CC2)CC1 | 691
20 | CCCN1CCn2cc(S(=O)(=O)Nc3ccc(C)cc3)cc2C1=O | 771
21 | CN1CCN(C(=O)C2CCN(S(=O)(=O)c3cc(-c4noc(C5CC5)n4)cs3)CC2)CC1 | 643
22 | CC1(C)CC2(CCO1)OC(=O)CC2C(=O)Nc1ccccc1Cl (stereo not drawn) | 753

Row | Structure (SMILES) | RP-LC retention time [s]
23 | O=C(CSCc1ccccc1)Nc1ccccc1Cl | 978
24 | Cc1onc2c(=O)n(CC(=O)N3CCN(c4ccccn4)CC3)nc(-c3ccc(Cl)cc3)c12 | 693
25 | COc1ccc(CNC(=O)CN2CCc3[nH]c4c(C)c(Cl)ccc4c(=O)c3C2)cc1 | 638
26 | Cc1ccc(-c2ncccc2CNS(=O)(=O)c2ccc(Cl)cc2)cc1 | 766
27 | CCCn1ccc2sc(C)c(C(=O)N3CCN(c4ccccn4)CC3)c2c1=O | 593
28 | Cc1ccc(C2=NC3(CCN(C(=O)c4ccsc4)CC3)ON2)cc1 | 737
29 | CC(C)Cn1nc(CNC(=O)C2CCC2)c2ccccc21 | 872
30 | CCCn1cc(C(=O)NCCN2CCCC2)c2cccnc21 | 589
31 | Cc1sc(-c2cc(C(F)(F)F)on2)cc1S(=O)(=O)NCCC1=CCCCC1 | 1320
32 | COCCOC1CCC12CCN(C(=O)c1cc(C)oc1C)CC2 (stereo not drawn) | 811
33 | CCc1cc(N2CCN(C(=O)c3cccc(C#N)c3)CC2)nc2nncn12 | 589
34 | COc1ccc(C(=O)Nc2ccc3c(c2)Sc2ncccc2C(=O)N3C)c(OC)c1 | 706
35 | Cc1ccc2c(c1)N(Cc1cc(F)cc(F)c1)N=C(C(=O)N1CCCC1)S2(=O)=O | 900
36 | CCN(CC)C(=O)Oc1ccc(C(=O)Nc2cccc3ccccc23)cc1 | 896
37 | Cc1ccc(-c2csc(NC(=O)CSc3nc4c(cc3C#N)CN(C(C)C)CC4)n2)cc1 | 741
38 | Cc1ccccc1Oc1nccnc1N1CCCC(C(=O)NCc2cccc(C(F)(F)F)c2)C1 (stereo not drawn) | 1120
39 | CCn1nccc1C(=O)NC1CCN(c2nc3c(s2)c(C)nn3-c2ccc(F)cc2)CC1 | 1060
40 | CCc1nc(-c2cc(S(=O)(=O)N3CCC(C(=O)NCc4cccs4)CC3)c(C)s2)no1 | 967
41 | O=C(NCCc1ccccc1)c1cn2c3c(ccc(Cl)c3c1=O)OCC2 | 880
42 | O=C(Nc1ccc2c(c1)C(=O)NCC2)Nc1ccccc1C(F)(F)F | 694
43 | O=C(O)c1cnc(-c2ccccc2)nc1-c1ccncc1 | 653
44 | CCN(CC)C(=O)c1ccc2c(c1)N(CC(=O)N1CCC(C)CC1)C(=O)C1CCCCN21 (stereo not drawn) | 838

Row | Structure (SMILES) | RP-LC retention time [s]
45 | Cc1ccc(C(C)NC(=O)c2nnc(-c3ccc(S(=O)(=O)N(C)C)cc3)o2)c(C)c1 (stereo not drawn) | 984
46 | Cc1nc(-c2ccccc2)cc2nn(CC(=O)NC3CCCCC3)c(=O)n12 | 880
47 | CC(C)CN1CCn2cc(S(=O)(=O)NCc3ccccc3Cl)cc2C1=O | 818
48 | Cn1c(=O)c(N2CCC(C(=O)NCCCN3CCCC3=O)CC2)nc2ccccc21 | 645
49 | O=C(Cn1nc2c(N3CCc4ccccc4C3)nccn2c1=O)NC1CCCCC1 | 865
50 | COc1cc(OC)c(NC(=O)C2=C(C)C(=O)OC23CCN(C(C)=O)CC3)cc1Cl | 730
51 | COc1ccc(C2c3[nH]c4ccccc4c3CCN2C(=O)c2ccncc2)cc1 (stereo not drawn) | 877
52 | COC(=O)c1ccc(NC(=O)Cn2nc3nc(N4CCCCC4C)ccn3c2=O)cc1 (stereo not drawn) | 778
53 | CCOC(=O)c1nc(Nc2ccc(OC)c(Cl)c2)c2ccccc2n1 | 886
54 | CCc1ccc(-c2csc(Nc3ccc(F)cn3)n2)cc1 | 1190
55 | CCOC(=O)C1C(=O)C=C(c2cccs2)CC1c1ccc(OCC)cc1 (stereo not drawn) | 1060
56 | COCc1nc(C2CCN(C(=O)C3(c4ccccc4)CC3)C2)no1 (stereo not drawn) | 750
57 | CCCn1cc(C(=O)NCc2ccccc2C)c(S(=O)(=O)N2CCC(C)CC2)n1 | 1110
58 | CC(=O)N1CCc2cc(S(=O)(=O)C(C)CC(=O)N3CCN(Cc4ccccc4)CC3)ccc21 (stereo not drawn) | 960
59 | CC1CCCC(C)N1CCCNC(=O)c1cc2sccc2n1Cc1ccc(Cl)cc1 (stereo not drawn) | 783
60 | O=C(Nc1cccc(C(F)(F)F)c1)c1cnc(-c2ccccc2)nc1-c1ccncc1 | 859
61 | Cc1ccccc1CNC(=O)C1(C)Oc2cccnc2N(C(C)C)C1=O (stereo not drawn) | 978
62 | COc1ccc(OC)c(NC(=O)Cn2ccc3c(=O)n(C)c(=O)n(C)c32)c1 | 670
63 | Cc1ccc(CNC(=O)Cn2cccc(-c3nc(-c4ccc(Br)cc4)no3)c2=O)cc1 | 1030
64 | CCn1ccnc1N1CCN(C(=O)c2ccccc2C(F)(F)F)CC1 | 555
65 | Cc1cc(C)cc(Oc2nccn3c(=O)n(CC(=O)Nc4ccccc4Cl)nc23)c1 | 963
66 | Cc1cccc(-c2noc(Cn3c(=O)n(-c4cccc(C)c4)c(=O)c4sccc43)n2)c1 | 1090

Row | Structure (SMILES) | RP-LC retention time [s]
67 | O=C(c1ccn[nH]1)N1CC(F)(F)C[C@H]1c1nc(C2CC2)no1 | 712
68 | O=C(Cn1cnc2nc(N3CCCC(C(=O)NC4CC4)C3)sc2c1=O)Nc1ccc2c(c1)OCO2 (stereo not drawn) | 659
69 | COc1ccccc1CN[C@@H]1CCCN[C@@H]1c1ccccc1 | 598
70 | CN(C1CCc2nn(C)c(=O)n2CC1)S(=O)(=O)c1cccc2cccnc12 (stereo not drawn) | 671
71 | CCC(C(=O)NCc1ccccn1)n1c2ccccc2c2cnn(C)c(=O)c21 (stereo not drawn) | 634
72 | O=C(CN1c2ccc(F)cc2-c2ccccc2S1(=O)=O)NCCc1ccccc1 | 960
73 | COCCOC(=O)C1=C(C)NC2=C(C(=O)C(C(=O)OC)C(C)C2)C1c1cccc(Cl)c1 (stereo not drawn) | 899
74 | COc1cc(NC(=O)c2c(C)oc3nc(C)nc(N4CCOCC4)c23)cc(OC)c1 | 804
75 | O=C(NCCc1ccccc1)c1ccc2c(cnn2CC(=O)N2CCCCCC2)c1 | 791
76 | COc1ccc(NC(=O)Cn2c(=O)nc(N3CCC(C)CC3)c3ccccc32)c(OC)c1 | 831
77 | COc1ccc(N2CCN(c3cc(SCC(=O)Nc4cc(C)ccc4C)ncn3)CC2)cc1 | 1020
78 | Cc1cc2c(cc1S(=O)(=O)N1CCCC1C(=O)NCc1ccc3c(c1)OCO3)OCC(=O)N2 (stereo not drawn) | 718
79 | CCN1c2ccc(C)cc2C(=O)NC12CCN(C(=O)c1ccccc1OC)CC2 | 786
80 | COc1ccc(C2CC(=O)c3c(C)nc(N4CCN(c5ccccn5)CC4)nc3C2)c(OC)c1 (stereo not drawn) | 765
81 | Cc1cccc(-c2nc(C)c(C(=O)NC3CC3)s2)c1 | 869
82 | CCn1cc(CC(=O)NC2CCN(Cc3ccccc3)CC2)c2cccnc21 | 564
83 | CCOC(=O)c1[nH]c(C)c(CCC(=O)N2CCC(C(=O)NCCCOC(C)C)CC2)c1C | 706
84 | COc1ccc(S(=O)(=O)N2CCCC(C(=O)N3CCc4ccccc4C3)C2)cc1Cl (stereo not drawn) | 1020
85 | Cn1c(N2CCCC(C(=O)NCCCN3CCC(Cc4ccccc4)CC3)C2)cc(=O)n(C)c1=O (stereo not drawn) | 630
86 | COc1ccc(-c2ccc(=O)n(CCNC(=O)c3ccno3)n2)cc1 | 628
87 | CCN(Cc1ccc(Cl)cc1)Cc1cc(=O)n2ccccc2n1 | 615
88 | CC(NC(=O)C1CCN(S(=O)(=O)c2ccc(Cl)cc2)CC1)C(=O)N1CCCc2ccccc21 (stereo not drawn) | 945
